Data taken from patent publication US6410575B1, “Viral treatment” (The Procter & Gamble Company, priority 1999, dated 2002).
Converted amounts (≈) assume the structure as drawn. “And” between values parts separate entries of the source, which are not always exact repeats. Equal values may be shown once. Read-outs that look alike come from different tables or passages of the source.

Legend:
[1] = system: CEMROD; experiment: Toxicity values in the HIV-2 screening test; format: cell-based; set-up: Toxicity Values, sample / Toxicity Values, average: unit not given here
Text: (§1) Toxicity quantification involves the XTT-based evaluation. Assays were designed to characterize the long term effects of the compounds on virus production and to characterize the longer term effects of the compounds on virus production from chronically HIV infected cells.

[2] = system: U937KN1272, a protease resistant strain; experiment: Long term in vitro study, U937KN1272; format: cell-based, HIV
Method: as §1
CEM-SS cells chronically infected with HIV isolate, for example SKI (CEM-SKI) are cultured in RPMI1640 tissue culture medium supplemented with 10% fetal bovine serum and antibiotics. […] CEM-SKI or other infected cells with no added drug are used as the control cells.
Cells are allowed to grow to a density of approximately 1×10^6 cells/ml and are then passaged at a 1:10 dilution. […] The drug concentration in the flask is then increased two-fold and the cells maintained as above.
The cell populations contain integrated copies of the HIV genome and constitutively produce HIV at relatively high levels or are latently infected and only produce virus after stimulation with phorbol esters, tumor necrosis factor or IL6(U1 and ACH2). Reductions in virus products were observed when quantifying supernatant reverse transcriptase activity.
Similar results are obtained with U937KN1272, a protease resistant strain, reported below.

[3] = system: TPA-induced BCBL-1 cells; experiment: Toxicity values in the HHV8 test; format: cell-based
Method: as §1
(§2) The DNA copy number and the toxicity value were measured and compared with Cidofovir. Kaposi's sarcoma (KS) is a cancer that is often found in people with weak immune systems, such as those taking immunosuppressants or those with AIDS. The exact nature of the disease is uncertain, but it is almost always found in association with HHV8.

[4] = Toxicity values in the HHV8 test; format: cell-based; settings: human, TPA-induced BCBL-1 cells; read-out: TC50 (the source's name)
Method: as §1, §2

[5] = system: HEPG2 2.2.15; experiment: Toxicity values in the hepatitis B test; format: cell-based; set-up: Toxicity Values, sample / Toxicity Values, mean: unit not given here
[6] = system: hepatitis B; experiment: In vitro virus production test of hepatitis B, HEPG2 2.2.15; format: cell-based; settings: for IC50: Hepatitis B virus, HepG2 2.2.15, hepatitis B, read-out: IC50
[7] = system: Cryptococcus neoformans; experiment: Anti-fungal activity, MFC (NCCLS M-27A based); format: cell-based
Method: It was active against Cryptococcus neoformans and Curvularia lunata. The cidal activity for the C. neoformans is high enough that it is clear […] against this yeast. This test was conducted using a method based upon NCCLS reference method M-27A published in 1997. Solvent, medium and growth controls were set-up with the tests. Once these were read to validate the test performance, the QC fungi were read to insure they had expected results. These steps validated the test system. DMSO was used as a drug-chemical solvent. […] The 90% cut-off is necessary for azoles, which are static and not cidal. The […] or cidal level, was determined by sub-culturing a sample from each tube showing no growth.

[8] = HEPG2 2.2.15, replicate experiment

NC(=S)Nc1nsc(-c2ccccc2)n1
% cell control ([1]; 0.32 μg/ml): 101.6% | Toxicity Values, average ([1]; 0.32 μg/ml): 1.197 | Toxicity Values, sample ([1]; 0.32 μg/ml): 1.181 and 1.206 and 1.203 | % cell control ([1]; 1 μg/ml): 90.9% | Toxicity Values, average ([1]; 1 μg/ml): 1.071 | Toxicity Values, sample ([1]; 1 μg/ml): 1.055 and 1.093 and 1.066 | % cell control ([1]; 1.0 μg/ml): 75.6% | Toxicity Values, average ([1]; 1.0 μg/ml): 0.891 | Toxicity Values, sample ([1]; 1.0 μg/ml): 0.871 and 0.881 and 0.921 | % cell control ([1]; 3.2 μg/ml): 83.1% | Toxicity Values, average ([1]; 3.2 μg/ml): 0.979 | Toxicity Values, sample ([1]; 3.2 μg/ml): 0.987 and 0.984 and 0.965 | % cell control ([1]; 32 μg/ml): 43.2% | Toxicity Values, average ([1]; 32 μg/ml): 0.509 | Toxicity Values, sample ([1]; 32 μg/ml): 0.518 and 0.491 and 0.517 | % cell control ([1]; 100 μg/ml): 9.8% | Toxicity Values, average ([1]; 100 μg/ml): 0.115 | Toxicity Values, sample ([1]; 100 μg/ml): 0.113 and 0.117 and 0.115 | virus production (supernatant reverse transcriptase activity) ([2]; U937KN1272, 7 μg/ml, day 4): 119839 | virus production (supernatant reverse transcriptase activity) ([2]; U937KN1272, 7 μg/ml, day 11): 78089 | virus production (supernatant reverse transcriptase activity) ([2]; U937KN1272, 7 μg/ml, day 18): 74773 | virus production (supernatant reverse transcriptase activity) ([2]; U937KN1272, 7 μg/ml, day 25): 78997 | virus production (supernatant reverse transcriptase activity) ([2]; U937KN1272, 7 μg/ml, day 32): 31156 | virus production (supernatant reverse transcriptase activity) ([2]; U937KN1272, 7 μg/ml, day 39): 41326 | virus production (supernatant reverse transcriptase activity) ([2]; U937KN1272, 7 μg/ml, day 46): 31024 | virus production (supernatant reverse transcriptase activity) ([2]; U937KN1272, 7 μg/ml, day 53): 31209 | virus production (supernatant reverse transcriptase activity) ([2]; U937KN1272, 15 μg/ml, day 4): 103341 | virus production (supernatant reverse transcriptase activity) ([2]; U937KN1272, 15 μg/ml, day 11): 80161 | virus production (supernatant reverse transcriptase activity) ([2]; U937KN1272, 15 μg/ml, day 18): 73939 | virus production (supernatant reverse transcriptase activity) ([2]; U937KN1272, 15 μg/ml, day 25): 74262 | virus production (supernatant reverse transcriptase activity) ([2]; U937KN1272, 15 μg/ml, day 32): 26305 | virus production (supernatant reverse transcriptase activity) ([2]; U937KN1272, 15 μg/ml, day 39): 28635 | virus production (supernatant reverse transcriptase activity) ([2]; U937KN1272, 15 μg/ml, day 46): 18073 | virus production (supernatant reverse transcriptase activity) ([2]; U937KN1272, 15 μg/ml, day 53): 22110 | virus production (supernatant reverse transcriptase activity) ([2]; U937KN1272, 30 μg/ml, day 4): 114070 | virus production (supernatant reverse transcriptase activity) ([2]; U937KN1272, 30 μg/ml, day 11): 89087 | virus production (supernatant reverse transcriptase activity) ([2]; U937KN1272, 30 μg/ml, day 18): 72398 | virus production (supernatant reverse transcriptase activity) ([2]; U937KN1272, 30 μg/ml, day 25): 38006 | virus production (supernatant reverse transcriptase activity) ([2]; U937KN1272, 30 μg/ml, day 32): 6908 | virus production (supernatant reverse transcriptase activity) ([2]; U937KN1272, 30 μg/ml, day 39): 14779 | virus production (supernatant reverse transcriptase activity) ([2]; U937KN1272, 30 μg/ml, day 46): 5663 | virus production (supernatant reverse transcriptase activity) ([2]; U937KN1272, 30 μg/ml, day 53): 10534 | % cell control ([3]; 0.64 μM): 114.3% | % cell control ([3]; 2 μM): 114.9% | % cell control ([3]; 6.4 μM): 104.6% | % cell control ([3]; 20 μM): 114.8% | % cell control ([3]; 64 μM): 59.7% | % cell control ([3]; 200 μM): 23.4% | CC50 [4]: 100 µM | % cell control ([5]; 0.64 μg/ml): 92.3% | Toxicity Values, mean ([5]; 0.64 μg/ml): 1.021 | Toxicity Values, sample ([5]; 0.64 μg/ml): 0.985 and 0.999 and 1.079 | % cell control ([5]; 2 μg/ml): 83.0% | Toxicity Values, mean ([5]; 2 μg/ml): 0.919 | Toxicity Values, sample ([5]; 2 μg/ml): 0.881 and 0.959 and 0.916 | % cell control ([5]; 6.4 μg/ml): 95.6% | Toxicity Values, mean ([5]; 6.4 μg/ml): 1.058 | Toxicity Values, sample ([5]; 6.4 μg/ml): 0.940 and 1.218 and 1.015 | % cell control ([5]; 20 μg/ml): 84.2% | Toxicity Values, mean ([5]; 20 μg/ml): 0.932 | Toxicity Values, sample ([5]; 20 μg/ml): 0.966 and 0.921 and 0.909 | % cell control ([5]; 64 μg/ml): 89.5% | Toxicity Values, mean ([5]; 64 μg/ml): 0.991 | Toxicity Values, sample ([5]; 64 μg/ml): 0.962 and 1.037 and 0.973 | % cell control ([5]; 200 μg/ml): 76.7% | Toxicity Values, mean ([5]; 200 μg/ml): 0.849 | Toxicity Values, sample ([5]; 200 μg/ml): 0.818 and 0.928 and 0.800 | TC50 ([5]; HEPG2 2.2.15): > 200 mg/L | TC50 [5, 8]: > 200 mg/L | % virus control ([6]; 0.64 μg/ml): 55.1% | DNA Copy Number (per 3 μl), mean ([6]; 0.64 μg/ml): 145.8 per 3 μl | DNA Copy Number (per 3 μl), sample ([6]; 0.64 μg/ml): 131.5 per 3 μl and 155.2 per 3 μl and 150.8 per 3 μl | % virus control ([6]; 2 μg/ml): 31.9% | DNA Copy Number (per 3 μl), mean ([6]; 2 μg/ml): 84.3 per 3 μl | % virus control ([6]; 6.4 μg/ml): 36.1% | DNA Copy Number (per 3 μl), mean ([6]; 6.4 μg/ml): 95.4 per 3 μl | % virus control ([6]; 20 μg/ml): 15.8% | DNA Copy Number (per 3 μl), mean ([6]; 20 μg/ml): 41.9 per 3 μl | % virus control ([6]; 64 μg/ml): 33.1% | DNA Copy Number (per 3 μl), mean ([6]; 64 μg/ml): 87.5 per 3 μl | DNA Copy Number (per 3 μl), sample ([6]; 64 μg/ml): 98.6 per 3 μl and 76.0 per 3 μl and 87.8 per 3 μl | % virus control ([6]; 200 μg/ml): 22.7% | DNA Copy Number (per 3 μl), mean ([6]; 200 μg/ml): 60.0 per 3 μl | IC50 [6, 8]: 0.76 mg/L (≈ 3.22 µM) | IC50 ([6]; HEPG2 2.2.15): 0.94 mg/L (≈ 3.98 µM) | therapeutic index or TI ([6]; hepatitis B, HEPG2 2.2.15): 212.8 | TI ([6]; hepatitis B, HEPG2 2.2.15, replicate experiment): 263.2 | anti-fungal activity in vitro [7]: active | MFC ([7]; cidal level, read-out: MFC): 32 mg/L (≈ 135 µM)
